In one experiment the test system is Lewis lung carcinoma. The experiment is described as follows: Antitumor effect test using Lewis lung carcinoma (subcutaneous tumor fragment implant, tumor weight on day 10). Type of experiment: in vivo, mouse. Particulars: oral, once daily for 7 days. How it is done: The antitumor composition according to the invention was tested for antitumor effect using Lewis lung carcinoma. Thus, each female Fl mouse [C57BL/6 x DBA/2] weighing 18 ± 1 .g was implanted with a tumor fragment about 2 mm^3 in volume subcutaneously into the axillary site using a trocar. Starting from 24 hours after tumor implantation, the above- mentioned compound 4 and uracil were orally administered combinedly in the proportion given below in Table 1 once daily for 7 days, and the antitumor effect was compared with that attained when each of them was administered singly. The sample agent was suspended in a 0.5% solution of gum arabic in physiological saline just before daily administration such that the dose amounted to 0.2 ml/20 g body weight. Ten days after tumor implantation, the tumor was excised and weighed, and the average tumor weight ratio (T/C %) between the dosed group (T, group of 5 animals) and the control group (C, group of 10 animals) was calculated. The daily dose was expressed in terms of number of moles per kilogram of body weight (mM/kg).

The subject of a further experiment is colon carcinoma 26. In words: Antitumor effect test using colon carcinoma 26 (subcutaneous tumor fragment implant, tumor weight on day 10). Type of experiment: in vivo, mouse. The note with it: oral, once a day for 7 days. Here is the method:
The antitumor composition according to the invention was further tested for antitumor effect using colon carcinoma 26. Thus, each female F1 mouse [BALB/c x DBA/2] weighing 21 ± 1 g was subcutaneously implanted with a tumor fragment (about 2 mm3) into the axillary site using a trocar. Starting from 24 hours after tumor implantation, the above- mentioned compound 4 and uracil were orally administered combinedly on the proportion given below in Table 2 once a day for 7 days, and the antitumor effect was compared with that attained by single administration of either of them. The test agent was suspended in a 0.5% solution of gum arabic in physiological saline daily just before administration such that the dose amounted to 0.2 ml/20 g body weight. Ten days after tumor implantation, the tumor was excised and weighed, and the average tumor weight ratio (T/C %) between the dosed group (T, group of 5 animals) and the control group (C, group of 20 animals) was calculated. The daily dose was expressed in terms of number of moles per kilogram of body weight (mM/kg).

Setting [1] is: compound 4 0.1 mM/kg alone, tumor excised 10 days after implantation.
Where [2] appears, read: compound 4 0.2 mM/kg alone, day 10.
Where [3] appears, read: compound 4 0.4 mM/kg alone, day 10.
The mark [4] stands for this setting: compound 4 0.8 mM/kg alone, day 10.

As to `O=c1cc[nH]c(=O)[nH]1` [uracil], the T/C (commonly the result in the treated group divided by that in the control group, in per cent) in the experiment with Lewis lung carcinoma (uracil 0.4 mM/kg alone, day 10) worked out at 125%; in the experiment on Lewis lung carcinoma (uracil 0.8 mM/kg alone, day 10), 224%; in the experiment on Lewis lung carcinoma (uracil 1.6 mM/kg alone, day 10), 197%; in the experiment with Lewis lung carcinoma (uracil 3.2 mM/kg alone, day 10), 169%; in the experiment on colon carcinoma 26 (uracil 0.4 mM/kg alone, day 10), 113%; in the experiment on colon carcinoma 26 (uracil 0.8 mM/kg alone, day 10) it was 87%. The T/C with colon carcinoma 26 (uracil 1.6 mM/kg alone, day 10) was 86%; in the experiment on colon carcinoma 26 (uracil 3.2 mM/kg alone, day 10), 98%. For the same compound, the Tumor weight in the experiment on Lewis lung carcinoma (uracil 0.4 mM/kg alone, day 10) was determined as 319 mg; in the experiment on Lewis lung carcinoma (uracil 0.8 mM/kg alone, day 10) it was 572 mg; in the experiment with Lewis lung carcinoma (uracil 1.6 mM/kg alone, day 10), 502 mg; with Lewis lung carcinoma (uracil 3.2 mM/kg alone, day 10), 432 mg; with colon carcinoma 26 (uracil 0.4 mM/kg alone, day 10), 223 mg; in the experiment on colon carcinoma 26 (uracil 0.8 mM/kg alone, day 10) it was 173 mg. Besides, the Tumor weight in the experiment on colon carcinoma 26 (uracil 1.6 mM/kg alone, day 10) was 170 mg; with colon carcinoma 26 (uracil 3.2 mM/kg alone, day 10) it was 194 mg.

On to `CC(C)COC(=O)C1(F)C(=O)NC(=O)NC1O/N=C/c1ccco1` (centres unmarked) [compound 4, Isobutyl 5-fluoro-4-[(E)-furfurylideneaminooxy]-2,6-dioxohexahydropyrimidine-5-carboxylate], for which the T/C in the experiment with Lewis lung carcinoma (setting [1]) was 54%; in the experiment with Lewis lung carcinoma (setting [2]), 42%; in the experiment on Lewis lung carcinoma (setting [3]), 31%; in the experiment on Lewis lung carcinoma (setting [4]), 19%; in the experiment with colon carcinoma 26 (setting [1]), 96%; in the experiment with colon carcinoma 26 (setting [2]) it was 29%. For the same compound, the T/C is reported as 1% with colon carcinoma 26 (setting [3]) and 0% with colon carcinoma 26 (setting [4]). The Tumor weight worked out at 138 mg in the experiment on Lewis lung carcinoma (setting [1]); 107 mg with Lewis lung carcinoma (setting [2]); 80 mg in the experiment with Lewis lung carcinoma (setting [3]); 49 mg with Lewis lung carcinoma (setting [4]); 190 mg in the experiment on colon carcinoma 26 (setting [1]); 57 mg in the experiment with colon carcinoma 26 (setting [2]). Also, the Tumor weight in the experiment on colon carcinoma 26 (setting [3]) is listed as 2 mg; in the experiment on colon carcinoma 26 (setting [4]), 0 mg.

Values taken from patent EP0171942A1, “Antitumor composition” (Takeda Chemical Industries, Ltd., priority 1984, dated 1986).
